Results: patent US20220354963A1, “EXTRACELLULAR VESICLE LINKED TO MOLECULES AND USES THEREOF” (Codiak BioSciences, Inc., priority 2019, published 2022)
pIC50: −log10 of the molar value.

Experiments:
Type in all cases: cell-based, human
NRas mRNA = NRas mRNA expression in HEK-293 cells, branched DNA assay; design: NRAS max inhibition: unit not given here; details: for IC20 / IC50 / IC80 / max. inhib. [%]:: HEK293 cells: dose-response; for NRAS max inhibition: Table 6
Procedure: (§1) The ASOs of the present disclosure were tested for their ability to reduce NRas mRNA expression in HEK-293 cells. The HEK-293 cells were grown in cell culture media and seeded onto a 96 well plate at a density of 20,000 cells/well. ASOs were tested in two separate cohorts: 2 doses or 5 doses were given to the HEK-293 cells (See TABLES 4, 5 and 6) at final concentrations of 20 nM and 2 nM respectively. The assay used Lipofectamine2000 transfection and a 48 hr treatment cycle, with incubation at 37° C. and 5% C02. Analysis of the mRNA expression was then carried out using a branched DNA assay.

GAPDH [1] = test: GAPDH inhibition in HEK-293 cells, same assay; design: GAPDH max inhibition: unit not given here; details: for 2D GAPDH 20 nM inhibition: 2D (dual-dose); for GAPDH max inhibition: Table 6
STAT3 mRNA [2] = test: STAT3 mRNA expression in IL-6 stimulated PANC-1 cells, branched DNA assay; details: for STAT3 Inhibition 2 nM / STAT3 Inhibition 20 nM: 2 point DR data; for pIC50: 5 point DR data, Lipofectamine2000 transfection, 48 hr, read-out: STAT3 PANC1 IC50 Prism
Procedure: as §1, with “reduce STAT3” for “reduce NRas”, “in IL-6 stimulated PANC-1” for “in HEK-293”, “The PANC-1” for “The HEK-293”, “the PANC-1” for “the HEK-293”, “(See TABLE 3)” for “(See TABLES 4, 5 and 6)”, “2 nM,” for “2 nM”

GAPDH [3] = test: GAPDH inhibition in PANC-1 cells, same assay; details: 2 point DR data
Procedure: as §1, with “The PANC-1” for “The ASOs of the present disclosure were tested for their ability to reduce NRas mRNA expression in HEK-293 cells. The HEK-293”, “the PANC-1” for “the HEK-293”, “(See TABLE 3)” for “(See TABLES 4, 5 and 6)”, “2 nM,” for “2 nM”

STAT3 mRNA [4] = test: STAT3 mRNA expression in IL-6 stimulated PANC-1 cells, branched DNA assay; details: 5 point DR data

Substance	IC20 (NRas mRNA) [nM]	IC50 (NRas mRNA) [nM]	IC80 (NRas mRNA) [nM]	max. inhib. [%]: (NRas mRNA) [%]	NRAS max inhibition (NRas mRNA)	2D GAPDH 20 nM inhibition (GAPDH [1])	GAPDH max inhibition (GAPDH [1])	STAT3 Inhibition 2 nM (STAT3 mRNA [2])	STAT3 Inhibition 20 nM (STAT3 mRNA [2])	pIC50 (STAT3 mRNA [2])	GAPDH Inhibition 20 nM (GAPDH [3])	STAT3 Max inihibition 24 nM (STAT3 mRNA [4])
201 (CACCAGGGAACATCTCGGGG; chemistry not given here) [compound 201]	0.024	0.1	0.455	97.2	98.45	16.86	45.30					
223 (CGCTGTTTGGCCGGGCAGAA; chemistry not given here) [compound 223]	0.121	0.581	35.4	80.8	85.75	20.53	18.44					
120 (ATTATCTGAACCCCACTTCG; chemistry not given here) [compound 120]								62.8	93.4	8.69	12.00	87.43
112 (GCGAAGATCCACACGGCCAT; chemistry not given here) [compound 112]								70.0	91.0	8.98	−25.00	86.32
105 (GGATAGTCCTCTAAGTGCAT; chemistry not given here) [compound 105]								79.4	91.6	8.83	13.00	85.61
SEQ ID NO: 232: NRas ASO, starting nucleotide 400, length 20 (CCGGGCAGAAACTCCGCTGA; chemistry not given here)	0.048	0.245	1.59	93.2	95.91	36.10	53.16					
250 (GCCAAACAGCGTAACCCCTT; chemistry not given here) [compound 250]	0.173	0.715	5.68	86.3	88.02	27.30	33.44					
248 (CAAACAGCGTAACCCCTTCT; chemistry not given here) [compound 248]	0.051	0.288	2.4	91.0	93.72	30.77	37.96					
257 (TCTGCCCGGCCAAACAGCGT; chemistry not given here) [compound 257]	0.069	0.364	3.67	87.3	91.79	21.09	30.55					
139 (ACTCCATCTTAATGGGACTC; chemistry not given here) [compound 139]								52.8	83.4	8.40	10.00	72.50
126 (TGGAATCTGCTTCTCACGTA; chemistry not given here) [compound 126]								61.4	90.7	8.56	13.00	87.71
135 (ACGTCTTGGTCTTGCCGATG; chemistry not given here) [compound 135]								53.9	84.2	8.98	4.00	78.59
142 (GGCAGCAGCTCATGATCAGG; chemistry not given here) [compound 142]								51.7	80.0	8.17	9.00	76.10
SEQ ID NO: 236: NRas ASO, starting nucleotide 421, length 20 (CCCCGAGATGTTCCCTGGTG; chemistry not given here)	0.053	0.349	4.78	87.3	91.51	34.05	40.06					
227 (GTTTGGCCGGGCAGAAACTC; chemistry not given here) [compound 227]	0.087	0.413	4.05	86.3	87.95	24.56	18.30					
238 (CTCCCCGAGATGTTCCCTGG; chemistry not given here) [compound 238]	0.139	0.646	4.79	88.9	90.92	22.48	26.33					
224 (GCTGTTTGGCCGGGCAGAAA; chemistry not given here) [compound 224]	0.639	1.93		72.0								
239 (AGGCTCCCCGAGATGTTCCC; chemistry not given here) [compound 239]	0.027	0.159	1.46	90.4	94.35	39.01	37.62					
247 (AAACAGCGTAACCCCTTCTT; chemistry not given here) [compound 247]	0.122	0.561	4.14	88.8	90.09	25.39	25.35					
218 (GTTACGCTGTTTGGCCG; chemistry not given here) [compound 218]	0.139	0.427	1.94	88.0	90.00	28.11	25.71					
264 (GCGGAGTTTCTGCCCGGCCA; chemistry not given here) [compound 264]	0.039	0.229	2.43	88.5	91.73	10.43	26.13					
185 (TCCGAGAGTGTTGCCTCGCA; chemistry not given here) [compound 185]	0.074	0.349	3.8	85.4								
253 (CGGCCAAACAGCGTAAC; chemistry not given here) [compound 253]	0.108	0.461	2.79	90.4	94.40	40.44	29.34					
254 (GCCAAACAGCGTAAC; chemistry not given here) [compound 254]	0.067	0.336	2.11	93.4	96.11	20.10	32.96					
252 (CCAAACAGCGTAACC; chemistry not given here) [compound 252]	0.072	0.296	1.95	88.4	91.49	13.40	29.98					
200 (GTTATGGTCAGTTAATAGAA; chemistry not given here) [compound 200]	0.041	0.16	0.666	97.6	98.68	33.52	38.68					
206 (GAGCCTGGTTGGAAGCTGCA; chemistry not given here) [compound 206]	0.117	0.471	2.58	90.9	94.95	40.87	44.21					
231 (GCCGGGCAGAAACTCCGCTG; chemistry not given here) [compound 231]	0.18	0.538	2.1	90.4	93.63	36.92	29.21					
